Experimental data: ChEMBL document CHEMBL1201862, “PubChem BioAssay data set” (2004)
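A five-concentration, 48-hour dose response in 96-well plates underlies each endpoint, interpolated linearly between surrounding concentrations. GI50 = concentration required for 50% inhibition of growth.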 The source made the active and inactive calls. Cut-off read from the data, not from the text of the source: active = GI50 up to about 1.1 µM and inactive = higher.

Legend:
Assay in all cases: NCI anticancer screen, dose series, 48 h
COLO 205 = test system: COLO 205
HCT-116 = test system: HCT-116
IGROV-1 = test system: IGROV-1
KM12 = test system: KM12
Malme-3M = test system: Malme-3M
NCI-H23 = test system: NCI-H23
NCI-H460 = test system: NCI-H460
RPMI-8226 = test system: RPMI-8226
SF-268 = test system: SF-268
SK-MEL-28 = test system: SK-MEL-28
SK-MEL-5 = test system: SK-MEL-5
SK-OV-3 = test system: SK-OV-3
SNB-19 = test system: SNB-19
SR = test system: SR
T47D = test system: T47D
U-251 = test system: U-251
UACC-257 = test system: UACC-257
UACC-62 = test system: UACC-62
UO-31 = test system: UO-31
RXF 393 = test system: RXF 393

| Compound | GI50 (COLO 205) | GI50 (HCT-116) | GI50 (IGROV-1) | GI50 (KM12) | GI50 (Malme-3M) | GI50 (NCI-H23) | GI50 (NCI-H460) | GI50 (RPMI-8226) | GI50 (SF-268) | GI50 (SK-MEL-28) | GI50 (SK-MEL-5) | GI50 (SK-OV-3) | GI50 (SNB-19) | GI50 (SR) | GI50 (T47D) | GI50 (U-251) | GI50 (UACC-257) | GI50 (UACC-62) | GI50 (UO-31) | GI50 (RXF 393) |
| --- | --- | --- | --- | --- | --- | --- | --- | --- | --- | --- | --- | --- | --- | --- | --- | --- | --- | --- | --- | --- |
| COc1ccc(C(c2cc(OC)c(OC)c(OC)c2)N2C(=O)CCC2C(=O)O)cc1 (centres undefined) | 41 µM (inactive) | 35.5 µM (inactive) | 84.5 µM (inactive) | 35.6 µM (inactive) | 68.9 µM (inactive) | 82.8 µM (inactive) | 38.8 µM (inactive) | 49.8 µM (inactive) | > 100 µM (inactive) | 51.1 µM (inactive) | 41.9 µM (inactive) | 60.1 µM (inactive) | 44.9 µM (inactive) | 49.7 µM (inactive) | 47.2 µM (inactive) | 38.3 µM (inactive) | > 100 µM (inactive) | 51.3 µM (inactive) | 56.4 µM (inactive) | – |
| CCNC(=O)Cc1nc2c(O)ncnc2n1C1OC(CO)C(O)C1O (centres undefined) | > 100 µM (inactive) | > 100 µM (inactive) | > 100 µM (inactive) | > 100 µM (inactive) | > 100 µM (inactive) | > 100 µM (inactive) | > 100 µM (inactive) | > 100 µM (inactive) | > 100 µM (inactive) | > 100 µM (inactive) | > 100 µM (inactive) | > 100 µM (inactive) | > 100 µM (inactive) | – | > 100 µM (inactive) | > 100 µM (inactive) | > 100 µM (inactive) | > 100 µM (inactive) | > 100 µM (inactive) | > 100 µM (inactive) |
| Cc1oc(N)c(S(=O)(=O)c2cc3ccccc3[n+]([O-])c2N)c1C | > 100 µM (inactive) | – | > 100 µM (inactive) | > 100 µM (inactive) | > 100 µM (inactive) | > 100 µM (inactive) | > 100 µM (inactive) | > 100 µM (inactive) | > 100 µM (inactive) | > 100 µM (inactive) | > 100 µM (inactive) | > 100 µM (inactive) | > 100 µM (inactive) | < 0.01 µM (active) | > 100 µM (inactive) | > 100 µM (inactive) | > 100 µM (inactive) | > 100 µM (inactive) | > 100 µM (inactive) | – |
| C/C(CC1C2CCCC1C2)=N\NC(N)=O (centres undefined) | > 100 µM (inactive) | > 100 µM (inactive) | > 100 µM (inactive) | > 100 µM (inactive) | > 100 µM (inactive) | > 100 µM (inactive) | > 100 µM (inactive) | > 100 µM (inactive) | > 100 µM (inactive) | > 100 µM (inactive) | > 100 µM (inactive) | > 100 µM (inactive) | > 100 µM (inactive) | > 100 µM (inactive) | > 100 µM (inactive) | > 100 µM (inactive) | > 100 µM (inactive) | > 100 µM (inactive) | > 100 µM (inactive) | – |
| CN(C)CCCCN1c2ccccc2Sc2ccc(N=[N+]=[N-])cc21 | 1.72 µM (inactive) | 4.21 µM (inactive) | 3.08 µM (inactive) | 3.15 µM (inactive) | 1.76 µM (inactive) | 13.3 µM (inactive) | 4.09 µM (inactive) | 2.29 µM (inactive) | 5.97 µM (inactive) | 1.91 µM (inactive) | 1.67 µM (inactive) | 12.9 µM (inactive) | 8.85 µM (inactive) | – | 4.32 µM (inactive) | 3.13 µM (inactive) | 1.92 µM (inactive) | 1.88 µM (inactive) | 6.34 µM (inactive) | 4.06 µM (inactive) |
| O=C1NC(=O)/C(=C/c2ccc(S(=O)(=O)N/N=C/c3ccccc3)cc2)N1 | > 100 µM (inactive) | > 100 µM (inactive) | > 100 µM (inactive) | > 100 µM (inactive) | > 100 µM (inactive) | > 100 µM (inactive) | – | > 100 µM (inactive) | > 100 µM (inactive) | > 100 µM (inactive) | > 100 µM (inactive) | > 100 µM (inactive) | > 100 µM (inactive) | – | > 100 µM (inactive) | > 100 µM (inactive) | > 100 µM (inactive) | > 100 µM (inactive) | > 100 µM (inactive) | > 100 µM (inactive) |
| Cc1cc(-n2c(/C=C/c3ccc(Cl)cc3)nc3cc(Cl)ccc3c2=O)on1 | 18.9 µM (inactive) | 6.1 µM (inactive) | 29.6 µM (inactive) | > 50 µM (inactive) | 24 µM (inactive) | 41.4 µM (inactive) | 5.12 µM (inactive) | – | 15.7 µM (inactive) | > 50 µM (inactive) | 16.4 µM (inactive) | 14.9 µM (inactive) | 9.86 µM (inactive) | 0.005 µM (active) | > 50 µM (inactive) | 6.4 µM (inactive) | > 50 µM (inactive) | > 50 µM (inactive) | 3.61 µM (inactive) | – |
| CC1CN=C(N(C(=O)Nc2ccc(Cl)c(Cl)c2)c2ccccc2)S1 (centres undefined) | 37.2 µM (inactive) | 42.6 µM (inactive) | > 100 µM (inactive) | 32.1 µM (inactive) | 76.7 µM (inactive) | 64.9 µM (inactive) | 43.4 µM (inactive) | 64.9 µM (inactive) | 69.2 µM (inactive) | 38.5 µM (inactive) | 20.7 µM (inactive) | – | > 100 µM (inactive) | – | 20.2 µM (inactive) | 53.5 µM (inactive) | 68.5 µM (inactive) | – | > 100 µM (inactive) | – |
| Cn1c(=O)c2c(nc(N/N=C3/SCC(=O)N3Cc3ccccc3)n2C)n(C)c1=O | 50.4 µM (inactive) | > 100 µM (inactive) | 34.3 µM (inactive) | 94.2 µM (inactive) | > 100 µM (inactive) | > 100 µM (inactive) | 38 µM (inactive) | 17.5 µM (inactive) | 60.7 µM (inactive) | > 100 µM (inactive) | 34 µM (inactive) | 43.5 µM (inactive) | > 100 µM (inactive) | – | 61.4 µM (inactive) | 54.6 µM (inactive) | > 100 µM (inactive) | 64.4 µM (inactive) | > 100 µM (inactive) | > 100 µM (inactive) |
| Fc1ccccc1C1SCc2nc3cc4ccccc4cc3n21 (centres undefined) | 86.7 µM (inactive) | 24.9 µM (inactive) | 62.5 µM (inactive) | > 100 µM (inactive) | > 100 µM (inactive) | > 100 µM (inactive) | 26.5 µM (inactive) | > 100 µM (inactive) | 45.3 µM (inactive) | 54.3 µM (inactive) | 71.1 µM (inactive) | 71.6 µM (inactive) | 32.5 µM (inactive) | – | 14 µM (inactive) | 33.7 µM (inactive) | 61.1 µM (inactive) | 57.9 µM (inactive) | > 100 µM (inactive) | 13.3 µM (inactive) |
| CC(=O)O[C@H]1[C@H](OC(=O)CC(C)(O)CC(=O)O)C[C@]2(C)C3=C(CCC2C1(C)C)[C@]1(C)CC[C@H]([C@H]2CC[C@H](C(C)(C)O)OC2O)[C@@]1(C)[C@@H](O)C3 (some centres undefined) | – | 20.7 µM (inactive) | 17.1 µM (inactive) | 19.7 µM (inactive) | 23.7 µM (inactive) | 16.6 µM (inactive) | 15.3 µM (inactive) | 20.9 µM (inactive) | – | 16.9 µM (inactive) | 17.2 µM (inactive) | 16.7 µM (inactive) | 18.8 µM (inactive) | 25.6 µM (inactive) | 20.9 µM (inactive) | 19.8 µM (inactive) | 19.4 µM (inactive) | 19.4 µM (inactive) | 13.1 µM (inactive) | – |
| O=C(O)Cc1cccc2c(=O)c3cccc([N+](=O)[O-])c3[nH]c12 | 20.7 µM (inactive) | > 100 µM (inactive) | > 100 µM (inactive) | 85.1 µM (inactive) | 29.4 µM (inactive) | > 100 µM (inactive) | > 100 µM (inactive) | 12.9 µM (inactive) | – | – | 44.7 µM (inactive) | > 100 µM (inactive) | 43.3 µM (inactive) | 21.4 µM (inactive) | > 100 µM (inactive) | 38.9 µM (inactive) | > 100 µM (inactive) | 25 µM (inactive) | > 100 µM (inactive) | – |
| CCCCN=C(OC1C=CCCC1)SC (centres undefined) | > 100 µM (inactive) | > 100 µM (inactive) | > 100 µM (inactive) | – | > 100 µM (inactive) | > 100 µM (inactive) | > 10 µM (inactive) | > 100 µM (inactive) | > 100 µM (inactive) | > 100 µM (inactive) | > 100 µM (inactive) | > 100 µM (inactive) | > 100 µM (inactive) | > 100 µM (inactive) | > 100 µM (inactive) | > 100 µM (inactive) | > 100 µM (inactive) | > 100 µM (inactive) | > 100 µM (inactive) | – |
| Cn1cnc([N+](=O)[O-])c1Sc1nc2cc([N+](=O)[O-])ccc2[nH]1 | 10.4 µM (inactive) | 23.4 µM (inactive) | 19 µM (inactive) | 34.9 µM (inactive) | > 10 µM (inactive) | 23.8 µM (inactive) | 36.1 µM (inactive) | 21.6 µM (inactive) | 19.9 µM (inactive) | 15.3 µM (inactive) | 15.5 µM (inactive) | 22 µM (inactive) | 42.3 µM (inactive) | 9.29 µM (inactive) | – | 27 µM (inactive) | 14.3 µM (inactive) | 11.9 µM (inactive) | 19.1 µM (inactive) | 17.5 µM (inactive) |
| Clc1ccc2c(NCCNc3ccnc4cc(Cl)ccc34)ccnc2c1 | 14.6 µM (inactive) | 16.9 µM (inactive) | 18.2 µM (inactive) | 18.2 µM (inactive) | > 100 µM (inactive) | 17.1 µM (inactive) | 14 µM (inactive) | 20.6 µM (inactive) | 25.9 µM (inactive) | 17.3 µM (inactive) | 22.4 µM (inactive) | 17.7 µM (inactive) | 20.1 µM (inactive) | – | 23.6 µM (inactive) | 17.9 µM (inactive) | 17.9 µM (inactive) | 18.1 µM (inactive) | 15.7 µM (inactive) | 20 µM (inactive) |
